How the values were obtained:
MMP-2 [1] = experiment: Substrate phage display with NGS: relative probability (RP) of P3-P1' tetramer clusters; type: biochemical, human; conditions: MMP2;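 also: ratio of tetramer probability after protease selection to that in naive phage library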
MMP-2 [2] = target: T1, MMP-2 (Homo sapiens, UniProt P08253); experiment: K(obs) of individual phage substrates (set of 1369); type: biochemical; conditions: MMP2
T1 sequence (P08253 110-660): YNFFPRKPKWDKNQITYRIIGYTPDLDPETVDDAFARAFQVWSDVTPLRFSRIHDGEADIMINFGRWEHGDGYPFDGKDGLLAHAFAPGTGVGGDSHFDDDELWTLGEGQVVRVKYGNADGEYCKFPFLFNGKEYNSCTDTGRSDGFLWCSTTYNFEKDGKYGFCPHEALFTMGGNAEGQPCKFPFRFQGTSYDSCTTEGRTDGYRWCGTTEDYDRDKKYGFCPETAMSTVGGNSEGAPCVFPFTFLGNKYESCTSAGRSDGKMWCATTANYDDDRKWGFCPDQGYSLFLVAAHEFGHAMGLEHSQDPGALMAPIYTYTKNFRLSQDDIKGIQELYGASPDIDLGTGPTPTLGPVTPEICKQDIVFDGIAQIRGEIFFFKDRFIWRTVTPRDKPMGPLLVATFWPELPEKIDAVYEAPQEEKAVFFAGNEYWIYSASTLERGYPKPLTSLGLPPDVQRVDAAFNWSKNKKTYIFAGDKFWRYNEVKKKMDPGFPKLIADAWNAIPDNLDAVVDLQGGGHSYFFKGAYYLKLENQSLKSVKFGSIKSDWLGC

MMP-9 = MMP-9 (Homo sapiens, UniProt P14780); experiment: as above; type: biochemical; conditions: MMP9
MMP-9, sequence (P14780 94-707): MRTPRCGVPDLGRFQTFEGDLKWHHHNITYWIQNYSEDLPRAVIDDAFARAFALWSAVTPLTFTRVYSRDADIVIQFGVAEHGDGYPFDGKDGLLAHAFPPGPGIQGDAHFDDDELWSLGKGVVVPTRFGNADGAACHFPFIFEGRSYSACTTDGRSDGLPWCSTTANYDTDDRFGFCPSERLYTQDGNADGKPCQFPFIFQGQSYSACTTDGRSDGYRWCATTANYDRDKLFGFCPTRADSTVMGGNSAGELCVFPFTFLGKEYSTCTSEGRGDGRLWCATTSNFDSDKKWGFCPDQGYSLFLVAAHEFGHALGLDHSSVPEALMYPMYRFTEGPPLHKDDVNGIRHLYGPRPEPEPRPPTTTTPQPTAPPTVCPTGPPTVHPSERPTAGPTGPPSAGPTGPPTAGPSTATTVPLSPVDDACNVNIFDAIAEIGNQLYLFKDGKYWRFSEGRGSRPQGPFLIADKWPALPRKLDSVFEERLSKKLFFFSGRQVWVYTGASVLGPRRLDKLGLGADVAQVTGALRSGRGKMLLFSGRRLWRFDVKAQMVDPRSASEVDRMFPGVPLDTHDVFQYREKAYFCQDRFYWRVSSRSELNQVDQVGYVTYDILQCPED

[3] = RP of the P3-P1' tetramer contained in the substrate (substrate phage display with NGS)
[4] = individual phage substrates, set of 1369 peptides, cleavage position marked by hyphen in sequence
[5] = individual phage substrates, set of 1369 peptides, hyphen in sequence marks cleavage position
[6] = RP of the P3-P1' tetramer contained in the substrate
[7] = individual phage substrate of the set of 1369 peptides, cleavage position marked by '-'
[8] = individual phage substrate of the set of 1369 peptides, dash in the sequence marks the cleavage position

Substance | relative probability (RP) (MMP-2 [1]; [3]) | Kobs (MMP-2 [2]; [4]) | Kobs (MMP-9; [5]) | relative probability (RP) (MMP-2 [1]; [6]) | Kobs (MMP-2 [2]; [7]) | Kobs (MMP-9; [8])
TVLNS-LTASG | 18.3633 | 3438.54 M⁻¹ s⁻¹ | 0 M⁻¹ s⁻¹ | – | – | –
SGPRS-LYTTA | – | – | – | 33.3704 | 12792.1 M⁻¹ s⁻¹ | 12792.1 M⁻¹ s⁻¹
IEAWS-LTASG | 7.006 | 762.325 M⁻¹ s⁻¹ | 7015.91 M⁻¹ s⁻¹ | – | – | –
GEPNY-LKTAS | 17.2533 | 2687.73 M⁻¹ s⁻¹ | 1239.69 M⁻¹ s⁻¹ | – | – | –
ATPES-LTASG | – | – | – | 26.0767 | 8941.32 M⁻¹ s⁻¹ | 6131.32 M⁻¹ s⁻¹
RPPSS-LTASG | 35.4913 | 10866.7 M⁻¹ s⁻¹ | 9740.44 M⁻¹ s⁻¹ | – | – | –
SGHRS-LRSTA | – | – | – | 7.851 | 1981.53 M⁻¹ s⁻¹ | 3536.02 M⁻¹ s⁻¹
SGVRF-LKGTA | 15.0438 | 5269.78 M⁻¹ s⁻¹ | 12792.1 M⁻¹ s⁻¹ | – | – | –
SGPAY-WRTTA | 27.2209 | 12792.1 M⁻¹ s⁻¹ | 1610.61 M⁻¹ s⁻¹ | – | – | –
FSLRQ-MTASG | 8.677 | 990.764 M⁻¹ s⁻¹ | 690.17 M⁻¹ s⁻¹ | – | – | –
RLLLN-MTASG | 13.7728 | 2916.17 M⁻¹ s⁻¹ | 1112.44 M⁻¹ s⁻¹ | – | – | –
KKWRG-LTASG | – | – | – | 23.375 | 3079.62 M⁻¹ s⁻¹ | 6688.74 M⁻¹ s⁻¹
SGPFR-LNWTA | 16.3818 | 0 M⁻¹ s⁻¹ | 1373.05 M⁻¹ s⁻¹ | – | – | –
KSPLG-LTASG | 35.3536 | 4470.66 M⁻¹ s⁻¹ | 10866.7 M⁻¹ s⁻¹ | – | – | –
VFVSN-LTASG | 33.8801 | 12792.1 M⁻¹ s⁻¹ | 9740.44 M⁻¹ s⁻¹ | – | – | –
GFSAN-LKTAS | – | – | – | 23.7816 | 5667.28 M⁻¹ s⁻¹ | 484.315 M⁻¹ s⁻¹
TVPRA-WTASG | 34.1791 | 8941.32 M⁻¹ s⁻¹ | 8941.32 M⁻¹ s⁻¹ | – | – | –
SGPAA-LLGTA | – | – | – | 35.8015 | 8941.32 M⁻¹ s⁻¹ | 12792.1 M⁻¹ s⁻¹
GGYAN-LTTAS | 27.7486 | 5269.78 M⁻¹ s⁻¹ | 0 M⁻¹ s⁻¹ | – | – | –
GYFGN-LRTAS | 26.0275 | 7015.91 M⁻¹ s⁻¹ | 0 M⁻¹ s⁻¹ | – | – | –
GGSGA-LRVRG | – | – | – | 13.4712 | 1154.21 M⁻¹ s⁻¹ | 0 M⁻¹ s⁻¹
GFPLM-LTASG | – | – | – | 25.0435 | 9740.44 M⁻¹ s⁻¹ | 12792.1 M⁻¹ s⁻¹
GNVAN-LTASG | 34.9662 | 12792.1 M⁻¹ s⁻¹ | 1327.88 M⁻¹ s⁻¹ | – | – | –

Substance | relative probability (RP) (MMP-2 [1]; [3]) | Kobs (MMP-2 [2]; [4]) | Kobs (MMP-9; [5]) | relative probability (RP) (MMP-2 [1]; [6]) | Kobs (MMP-2 [2]; [7]) | Kobs (MMP-9; [8])
GTPMQ-LYTAS | – | – | – | 27.6586 | 5667.28 M⁻¹ s⁻¹ | 12792.1 M⁻¹ s⁻¹
SGPYT-LVMTA | 16.827 | 517.582 M⁻¹ s⁻¹ | 8321.48 M⁻¹ s⁻¹ | – | – | –
NVPVW-MTASG | – | – | – | 25.8126 | 5461.43 M⁻¹ s⁻¹ | 5461.43 M⁻¹ s⁻¹
SGPVN-LISTA | – | – | – | 34.508 | 6131.32 M⁻¹ s⁻¹ | 12792.1 M⁻¹ s⁻¹
RTAHN-LTASG | – | – | – | 23.7113 | 12792.1 M⁻¹ s⁻¹ | 5667.28 M⁻¹ s⁻¹
SGFAH-LTSTA | 19.6504 | 4763.33 M⁻¹ s⁻¹ | 171.876 M⁻¹ s⁻¹ | – | – | –
RVTWA-LTASG | 0.4366 | 0 M⁻¹ s⁻¹ | 1196.62 M⁻¹ s⁻¹ | – | – | –
VMVWN-ITASG | 4.0144 | 2761.81 M⁻¹ s⁻¹ | 8321.48 M⁻¹ s⁻¹ | – | – | –
GVYGA-LRTAS | – | – | – | 28.8499 | 12792.1 M⁻¹ s⁻¹ | 142.481 M⁻¹ s⁻¹
PRVWL-LTASG | 0.5351 | 3165.09 M⁻¹ s⁻¹ | 2687.73 M⁻¹ s⁻¹ | – | – | –
QRMAS-LTASG | 31.6834 | 10866.7 M⁻¹ s⁻¹ | 551.253 M⁻¹ s⁻¹ | – | – | –
FPVLS-LTASG | 10.8506 | 10866.7 M⁻¹ s⁻¹ | 6396.07 M⁻¹ s⁻¹ | – | – | –
EMYGN-MTASG | 13.8836 | 5667.28 M⁻¹ s⁻¹ | 451.441 M⁻¹ s⁻¹ | – | – | –
TVPYQ-LTASG | – | – | – | 25.4279 | 12792.1 M⁻¹ s⁻¹ | 12792.1 M⁻¹ s⁻¹
RDVLA-LTASG | 13.5229 | 3438.54 M⁻¹ s⁻¹ | 3165.09 M⁻¹ s⁻¹ | – | – | –
SGPSM-LTATA | 33.0235 | 9740.44 M⁻¹ s⁻¹ | 7386.83 M⁻¹ s⁻¹ | – | – | –
GSPAS-LRTAS | – | – | – | 36.4285 | 12792.1 M⁻¹ s⁻¹ | 12792.1 M⁻¹ s⁻¹
SYALH-LTASG | – | – | – | 14.6488 | 12792.1 M⁻¹ s⁻¹ | 3964.21 M⁻¹ s⁻¹
ARLGY-LTASG | – | – | – | 24.8925 | 10866.7 M⁻¹ s⁻¹ | 418.952 M⁻¹ s⁻¹
VHFAS-LTASG | – | – | – | 15.5827 | 12792.1 M⁻¹ s⁻¹ | 1030.73 M⁻¹ s⁻¹
RLANN-LTASG | – | – | – | 18.8719 | 5461.43 M⁻¹ s⁻¹ | 484.315 M⁻¹ s⁻¹
GSHSN-LMTAS | 27.7336 | 12792.1 M⁻¹ s⁻¹ | 56.119 M⁻¹ s⁻¹ | – | – | –
HRPRS-LTASG | – | – | – | 33.3704 | 12792.1 M⁻¹ s⁻¹ | 12792.1 M⁻¹ s⁻¹

Substance | relative probability (RP) (MMP-2 [1]; [3]) | Kobs (MMP-2 [2]; [4]) | Kobs (MMP-9; [5]) | relative probability (RP) (MMP-2 [1]; [6]) | Kobs (MMP-2 [2]; [7]) | Kobs (MMP-9; [8])
GSVNY-LVTAS | 8.427 | 0 M⁻¹ s⁻¹ | 0 M⁻¹ s⁻¹ | – | – | –
SGARN-LLWTA | – | – | – | 24.6947 | 1660.66 M⁻¹ s⁻¹ | 4613.14 M⁻¹ s⁻¹
ACIWS-LTASG | – | – | – | 5.404 | 27.918 M⁻¹ s⁻¹ | 355.093 M⁻¹ s⁻¹
GVYRH-MRTAS | 0.3212 | 0 M⁻¹ s⁻¹ | 0 M⁻¹ s⁻¹ | – | – | –
GSGRN-LRLQT | – | – | – | 8.812 | 551.253 M⁻¹ s⁻¹ | 113.394 M⁻¹ s⁻¹
PRVEA-LTASG | – | – | – | 10.756 | 4205.91 M⁻¹ s⁻¹ | 231.616 M⁻¹ s⁻¹
AVANS-LTASG | – | – | – | 10.0738 | 7386.83 M⁻¹ s⁻¹ | 1465.65 M⁻¹ s⁻¹
SGARA-MKWTA | – | – | – | 25.2992 | 1373.05 M⁻¹ s⁻¹ | 2837.92 M⁻¹ s⁻¹
WLPRA-VTASG | – | – | – | 28.3444 | 12792.1 M⁻¹ s⁻¹ | 12792.1 M⁻¹ s⁻¹
KAVNH-LTASG | – | – | – | 12.8499 | 1763.55 M⁻¹ s⁻¹ | 0 M⁻¹ s⁻¹
PVFQS-LTASG | 13.5551 | 4922.1 M⁻¹ s⁻¹ | 142.481 M⁻¹ s⁻¹ | – | – | –
RQLAA-ITASG | – | – | – | 28.8382 | 4205.91 M⁻¹ s⁻¹ | 355.093 M⁻¹ s⁻¹
GRIYE-LWTAS | 0.2382 | 585.336 M⁻¹ s⁻¹ | 1373.05 M⁻¹ s⁻¹ | – | – | –
TATNW-LTASG | – | – | – | 15.348 | 5461.43 M⁻¹ s⁻¹ | 0 M⁻¹ s⁻¹
GTALP-LRTAS | – | – | – | 22.1772 | 6396.07 M⁻¹ s⁻¹ | 3253.29 M⁻¹ s⁻¹
KMPSF-LTASG | 29.537 | 8321.48 M⁻¹ s⁻¹ | 8941.32 M⁻¹ s⁻¹ | – | – | –
EVARA-WTASG | 17.4628 | 7386.83 M⁻¹ s⁻¹ | 1513.13 M⁻¹ s⁻¹ | – | – | –
GGVSF-LLTAS | 5.918 | 1112.44 M⁻¹ s⁻¹ | 27.918 M⁻¹ s⁻¹ | – | – | –
HAPRG-STASG | – | – | – | 16.3331 | 7015.91 M⁻¹ s⁻¹ | 7386.83 M⁻¹ s⁻¹
GFWSS-LRTAS | – | – | – | 16.6561 | 5461.43 M⁻¹ s⁻¹ | 0 M⁻¹ s⁻¹
GLGLN-LTASG | 0.5789 | 355.093 M⁻¹ s⁻¹ | 231.616 M⁻¹ s⁻¹ | – | – | –
GKLAS-LRTAS | 31.1996 | 10866.7 M⁻¹ s⁻¹ | 84.609 M⁻¹ s⁻¹ | – | – | –
SGVYW-LRSTA | – | – | – | 16.4375 | 9740.44 M⁻¹ s⁻¹ | 12792.1 M⁻¹ s⁻¹

— article PMC7932537, “Quantitative profiling of protease specificity” (PLoS Computational Biology, 2021)
